Read-outs that look alike come from different tables or passages of the source.
Legend:
[1] = biological target: FGFR1 (Homo sapiens (Human), UniProt P11362); assay: FGFR Enzymatic Assay (FRET peptide phosphorylation), FGFR1; format: biochemical
Method: (§1) The inhibitor potency of the exemplified compounds was determined in an enzyme discontinuous assay that measures peptide phosphorylation using FRET measurements to detect product formation. Inhibitors were serially diluted in DMSO and a volume of 0.2 μL was transferred to the wells of a 384-well plate. For the isoforms of FGFR (−1, −2, −3 wild-type and mutant isoforms, −4) including phosphorylated and un-phosphorylated proteins, a 5 μL/well volume of enzyme diluted in assay buffer (50 mM HEPES, 10 mM MgCl2, 1 mM EGTA, 0.01% Tween-20, 5 mM DTT, pH 7.5) was added to the plate and pre-incubated with inhibitor for 5 to 15 minutes at ambient temperature. Appropriate controls (enzyme blank and enzyme with no inhibitor) were included on the plate. The reaction was initiated by the addition of a 5 μL/well volume containing both biotinylated […] […] The ATP Km values were pre-determined for each FGFR isoform in a separate series of experiments. […] The plate was allowed to equilibrate for ˜10 minutes at ambient temperature before scanning on a PheraStar plate reader (BMG Labtech) instrument.
(§2) Either GraphPad prism or XLfit was used to analyze the data. The IC50 values were derived by fitting the data to a four parameter logistic equation producing a sigmoidal dose-response curve with a variable Hill coefficient. Prism equation: Y=Bottom+(Top−Bottom)/(1+10^((Log IC50−X)*Hill slope)); […]

[2] = biological target: FGFR2 (Homo sapiens (Human), UniProt P21802); assay: FGFR Enzymatic Assay (FRET peptide phosphorylation), FGFR2; format: biochemical
Chain of FGFR2 (P21802 22-821): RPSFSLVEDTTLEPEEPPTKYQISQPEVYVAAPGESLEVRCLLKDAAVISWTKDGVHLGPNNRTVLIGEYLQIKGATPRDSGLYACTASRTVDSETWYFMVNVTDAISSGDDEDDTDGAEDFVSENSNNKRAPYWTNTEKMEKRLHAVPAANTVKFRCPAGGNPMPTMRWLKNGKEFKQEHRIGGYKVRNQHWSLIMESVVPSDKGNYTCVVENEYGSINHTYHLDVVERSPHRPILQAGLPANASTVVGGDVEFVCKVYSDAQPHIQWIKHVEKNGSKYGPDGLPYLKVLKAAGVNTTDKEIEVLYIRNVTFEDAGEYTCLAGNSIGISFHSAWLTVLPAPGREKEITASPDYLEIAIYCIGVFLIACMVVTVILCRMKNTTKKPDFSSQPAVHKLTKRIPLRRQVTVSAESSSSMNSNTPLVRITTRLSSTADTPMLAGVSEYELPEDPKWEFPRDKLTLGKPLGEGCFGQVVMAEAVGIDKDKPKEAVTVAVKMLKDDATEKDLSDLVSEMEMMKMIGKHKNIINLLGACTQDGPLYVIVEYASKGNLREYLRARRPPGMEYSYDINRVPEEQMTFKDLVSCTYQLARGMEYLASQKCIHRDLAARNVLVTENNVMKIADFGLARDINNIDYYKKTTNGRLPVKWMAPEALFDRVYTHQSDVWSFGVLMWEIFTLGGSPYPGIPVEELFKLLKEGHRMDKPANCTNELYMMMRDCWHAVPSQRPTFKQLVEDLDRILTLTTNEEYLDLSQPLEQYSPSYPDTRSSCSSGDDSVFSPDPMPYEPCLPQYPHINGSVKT
Method: as §1, §2

[3] = biological target: FGFR3 (Homo sapiens (Human), UniProt P22607); assay: FGFR Enzymatic Assay (FRET peptide phosphorylation), FGFR3; format: biochemical
Chain of FGFR3 (P22607 23-806): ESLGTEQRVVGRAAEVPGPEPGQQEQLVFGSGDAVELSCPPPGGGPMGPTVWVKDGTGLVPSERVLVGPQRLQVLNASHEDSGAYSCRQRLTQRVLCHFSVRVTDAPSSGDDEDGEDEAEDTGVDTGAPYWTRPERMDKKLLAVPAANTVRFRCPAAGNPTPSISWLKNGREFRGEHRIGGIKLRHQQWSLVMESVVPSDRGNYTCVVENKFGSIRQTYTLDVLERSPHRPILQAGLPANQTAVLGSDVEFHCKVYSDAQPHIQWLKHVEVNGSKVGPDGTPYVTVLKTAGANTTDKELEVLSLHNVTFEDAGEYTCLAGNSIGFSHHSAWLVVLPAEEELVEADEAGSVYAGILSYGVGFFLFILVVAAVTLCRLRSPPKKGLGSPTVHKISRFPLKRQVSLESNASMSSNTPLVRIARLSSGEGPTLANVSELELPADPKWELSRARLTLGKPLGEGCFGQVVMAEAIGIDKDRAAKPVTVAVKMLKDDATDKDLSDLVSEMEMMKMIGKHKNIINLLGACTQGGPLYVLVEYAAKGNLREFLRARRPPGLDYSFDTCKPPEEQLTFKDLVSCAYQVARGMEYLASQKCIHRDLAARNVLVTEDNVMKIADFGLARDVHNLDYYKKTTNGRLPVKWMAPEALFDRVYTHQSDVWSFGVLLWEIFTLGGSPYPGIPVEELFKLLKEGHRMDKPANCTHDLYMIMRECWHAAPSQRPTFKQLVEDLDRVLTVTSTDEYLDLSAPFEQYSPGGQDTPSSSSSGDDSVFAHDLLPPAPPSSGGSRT
Method: as §1, §2

[4] = biological target: tyrosine-phosphorylated Fibroblast Growth Factor Receptor 2 alpha (FGFR2α) in KATO III cells (Homo sapiens, UniProt P21802); assay: KATOIII Whole Blood pFGFR2α ELISA Assay; format: cell-based; conditions: KATO III cells spiked into human whole blood, 4 hours; read-out: FGFR2_WB_ELISA-KATOIII IC50
Chain of tyrosine-phosphorylated Fibroblast Growth Factor Receptor 2 alpha (FGFR2α) in KATO III cells (P21802 22-821 limits assumed): as the sequence (P21802 22-821) above
Method: To measure tyrosine-phosphorylated Fibroblast Growth Factor Receptor 2 alpha (FGFR2a) in KATO III spiked whole blood assay, KATO III cells were purchased from ATCC and maintained in Iscove's medium with 20% FBS (Gibco/Life Technologies). […] 50 uL of the cells were then spiked into a 96-deep well 2 ml polypropylene assay block (Costar) in the presence or absence of a concentration range of test compounds and 300 ul human heparinized whole blood (Biological Specialty Corp, Colmar Pa.). After 4 hours incubation in 37° C., the red cells were lysed using Qiagen EL buffer and the cell lysates were resuspended in lysis buffer (Cell Signaling) containing standard protease inhibitor cocktail (Calbiochem/EMD) and PMSF (Sigma) for 30 minutes ice. […] IC50 determination was performed by fitting the curve of inhibitor percent inhibition versus the log of the inhibitor concentration using the GraphPad Prism 5.0 software.

[5] = Permeability in Caco-2 cells (absorptive direction A-B); format: in vitro ADME; conditions: human, Caco-2, 4% BSA in receiver, read-out: CACO2 Pm
Method: (§3) Caco-2 cells were grown in 96-well transwell plates with a seeding density of 14000 cell/well in DMEM medium. To determine the permeability in the absorptive direction (A-B), the test compound in HBSS was added to the donor compartment (apical side), and 4% BSA in HBSS was added into the receiver compartment (basolateral side). To determine whether a compound is a P-gp substrate, permeability values were measured in both the A-B and B-A directions (bidirectional transport assay) in the absence of 4% BSA. Digoxin and cyclosporine A were included as positive controls for P-gp substrate and inhibitor, respectively, to ensure the functionality of P-gp in the bidirectional transport assay. The test compound at various concentrations was added in the donor compartment (apical side for A-B transport and basolateral side for B-A transport) while HBSS solution was added in the receiver compartment (basolateral side for A-B transport and apical side for B-A transport). For permeability studies in the A-B direction, the donor volume was 0.075 mL, and the receiver volume was 0.25 mL. For permeability studies in the B-A direction, the donor volume was 0.25 mL, and the receiver volume was 0.075 mL. The incubation was carried out at 37° C. for 120 minutes. Transepithelial electrical resistance (TEER) was measured before and after the 120 minutes incubation to ensure the integrity of the cell monolayers. At the end of the incubation period, samples were removed from both the donor and receiver sides and mixed with acetonitrile for protein precipitation. The supernatants were collected after centrifugation for analysis using LC-MS/MS method.
(§4) Permeability coefficient (Papp) values from Caco-2 studies were determined using the following equation: Papp(cm/s)=(F*VD)/(SA*MD) where the flux rate (F, mass/time) was calculated from the slope of cumulative amounts of compound of interest on the receiver side, SA is the surface area of the cell membrane, VD is the donor volume, and MD is the initial amount of the solution in the donor chamber.

[6] = system: Caco-2 cells; assay: as above; format: in vitro ADME; conditions: 4% BSA in receiver
Method: as §3, §4

[7] = biological target: P-gp (Homo sapiens (Human), UniProt P08183); assay: Bidirectional transport across Caco-2 monolayers (P-gp mediated transport); format: in vitro ADME; conditions: for Papp A→B at 120 min, 3 μM / Papp B→A at 120 min, 3 μM / efflux ratio at 120 min, 3 μM / Papp A→B at 120 min, 30 μM / Papp B→A at 120 min, 30 μM / efflux ratio at 120 min, 30 μM: human; for efflux ratio at 120 min, 3 μM / efflux ratio at 120 min, 30 μM: read-out: Efflux Ratio (B-A/A-B)
Chain of P-gp (P08183 whole entry): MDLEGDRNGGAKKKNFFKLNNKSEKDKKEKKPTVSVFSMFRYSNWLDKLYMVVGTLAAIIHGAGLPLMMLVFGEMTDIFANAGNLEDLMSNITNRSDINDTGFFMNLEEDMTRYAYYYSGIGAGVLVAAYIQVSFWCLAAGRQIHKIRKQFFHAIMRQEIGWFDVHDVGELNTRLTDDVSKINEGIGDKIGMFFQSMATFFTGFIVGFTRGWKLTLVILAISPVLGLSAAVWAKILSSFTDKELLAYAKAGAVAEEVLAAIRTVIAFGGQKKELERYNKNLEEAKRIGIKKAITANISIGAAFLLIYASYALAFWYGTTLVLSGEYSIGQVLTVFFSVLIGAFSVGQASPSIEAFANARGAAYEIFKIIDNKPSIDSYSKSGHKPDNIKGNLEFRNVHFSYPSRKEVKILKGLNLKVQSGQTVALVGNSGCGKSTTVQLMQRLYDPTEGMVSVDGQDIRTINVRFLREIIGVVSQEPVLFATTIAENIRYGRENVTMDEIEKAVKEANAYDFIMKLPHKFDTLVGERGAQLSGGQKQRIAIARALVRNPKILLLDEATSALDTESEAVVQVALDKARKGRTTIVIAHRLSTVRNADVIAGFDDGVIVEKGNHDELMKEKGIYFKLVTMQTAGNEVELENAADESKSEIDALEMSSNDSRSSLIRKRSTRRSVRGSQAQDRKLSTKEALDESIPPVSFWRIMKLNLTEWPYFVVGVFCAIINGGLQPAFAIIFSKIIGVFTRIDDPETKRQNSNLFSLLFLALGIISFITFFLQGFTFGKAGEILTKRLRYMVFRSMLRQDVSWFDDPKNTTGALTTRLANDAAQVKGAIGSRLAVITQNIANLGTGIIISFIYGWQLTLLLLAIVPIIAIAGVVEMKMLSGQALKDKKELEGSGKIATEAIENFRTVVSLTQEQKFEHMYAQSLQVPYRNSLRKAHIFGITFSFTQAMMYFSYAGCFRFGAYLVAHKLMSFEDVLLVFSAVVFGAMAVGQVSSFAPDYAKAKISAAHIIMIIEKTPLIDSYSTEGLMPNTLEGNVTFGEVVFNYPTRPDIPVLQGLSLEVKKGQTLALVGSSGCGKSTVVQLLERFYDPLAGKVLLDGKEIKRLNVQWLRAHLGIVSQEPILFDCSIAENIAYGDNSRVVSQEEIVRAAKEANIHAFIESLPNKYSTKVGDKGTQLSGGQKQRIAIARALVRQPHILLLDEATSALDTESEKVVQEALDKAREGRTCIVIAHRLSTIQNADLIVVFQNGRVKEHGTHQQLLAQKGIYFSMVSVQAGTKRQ
Method: as §3, §4
The efflux ratio from Caco-2 studies was calculated as the ratio of the Papp measured in the B-A direction divided by the Papp in the A-B direction.

[8] = Compound 1 human absorption, metabolism, and excretion study (single oral dose of [14C] Compound 1); format: in vivo; conditions: feces
Method: An open label-study was conducted, assessing the mass balance, pharmacokinetics, and metabolite profiles of a single oral dose of [14C] Compound 1:
Blood/plasma, urine, and feces were collected from participants for 4 to 10 days after administration.
Human discharge criteria includes that a minimum of 90% of the administered radioactive dose is recovered; and that less than or equal to 1% of the administered radioactive dose is recovered in excreta (urine and feces combined) in 2 consecutive 24-hour urine and fecal collection samples.

[9] = Caco-2, with cyclosporine A (CSA) 10 μM, with CSA 10 μM

Chain of FGFR1 (P11362 22-822): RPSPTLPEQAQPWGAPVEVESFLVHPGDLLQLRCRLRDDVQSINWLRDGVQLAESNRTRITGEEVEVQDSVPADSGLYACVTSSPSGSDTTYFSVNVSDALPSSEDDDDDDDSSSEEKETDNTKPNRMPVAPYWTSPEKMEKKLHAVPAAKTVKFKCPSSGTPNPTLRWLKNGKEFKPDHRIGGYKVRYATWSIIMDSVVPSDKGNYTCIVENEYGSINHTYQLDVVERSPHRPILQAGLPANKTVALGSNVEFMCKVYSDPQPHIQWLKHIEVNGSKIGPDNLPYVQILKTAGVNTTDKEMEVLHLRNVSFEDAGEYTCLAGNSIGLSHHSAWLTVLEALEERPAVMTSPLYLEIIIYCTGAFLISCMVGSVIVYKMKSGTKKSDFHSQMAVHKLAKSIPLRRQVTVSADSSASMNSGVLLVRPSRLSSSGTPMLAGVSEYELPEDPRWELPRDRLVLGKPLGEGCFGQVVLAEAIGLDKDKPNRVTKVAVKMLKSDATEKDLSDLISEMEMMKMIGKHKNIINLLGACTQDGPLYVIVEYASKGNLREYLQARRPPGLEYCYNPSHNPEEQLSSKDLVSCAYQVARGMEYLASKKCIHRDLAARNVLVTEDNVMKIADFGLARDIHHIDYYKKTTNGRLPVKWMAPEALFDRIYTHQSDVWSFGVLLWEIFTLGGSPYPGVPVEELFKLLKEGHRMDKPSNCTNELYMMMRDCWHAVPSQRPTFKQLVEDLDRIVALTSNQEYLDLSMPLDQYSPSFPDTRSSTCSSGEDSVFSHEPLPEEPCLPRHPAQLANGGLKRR

Compound: CCN1C(=O)N(c2c(F)c(O)cc(OC)c2F)Cc2cnc3[nH]c(CN4CCOCC4)cc3c21 [Compound 2, 3-(2,6-difluoro-3-hydroxy-5-methoxyphenyl)-1-ethyl-8-(morpholinomethyl)-1,3,4,7-tetrahydro-2H-pyrrolo[3′,2′:5,6]pyrido[4,3-d]pyrimidin-2-one]
- IC50 [1]: < 10 nM
- IC50 [2]: < 10 nM
- IC50 [3]: < 10 nM
- IC50 [4]: 50 to 250 nM
- Papp A→B at 120 min [5]: 0.5 ×10⁻⁶ cm/s
- CACO2 Pm [6]: 0.5 ×10E−6 cm/s
- substrate for Pgp transport ([7]; comparison of efflux ratios at 30 μM): more effective substrate for Pgp transport than Compound 1
- Papp A→B at 120 min, 3 μM [7, 9]: 0.65 ± 0.11 ×10⁻⁶ cm/s
- Papp B→A at 120 min, 3 μM [7, 9]: 2.2 ± 0.49 ×10⁻⁶ cm/s
- efflux ratio at 120 min, 3 μM [7, 9]: 3.3 ± 1.2
- Papp A→B at 120 min, 30 μM [7, 9]: 2 ± 0.33 ×10⁻⁶ cm/s
- Papp B→A at 120 min, 30 μM [7, 9]: 3.1 ± 1.2 ×10⁻⁶ cm/s
- efflux ratio at 120 min, 30 μM [7, 9]: 1.5 ± 0.59
- Papp A→B at 120 min, 3 μM ([7]; Caco-2, no inhibitor): 0.43 ± 0.15 ×10⁻⁶ cm/s
- Papp B→A at 120 min, 3 μM ([7]; Caco-2, no inhibitor): 11 ± 8 ×10⁻⁶ cm/s
- efflux ratio at 120 min, 3 μM ([7]; Caco-2, no inhibitor): 25 ± 11
- Papp A→B at 120 min, 30 μM ([7]; Caco-2, no inhibitor): 0.41 ± 0.07 ×10⁻⁶ cm/s
- Papp B→A at 120 min, 30 μM ([7]; Caco-2, no inhibitor): 7.7 ± 2.8 ×10⁻⁶ cm/s
- efflux ratio at 120 min, 30 μM ([7]; Caco-2, no inhibitor): 19
- % of Administered Dose in Feces Samples ([8]; 0-24 h): <0.1%
- % of Administered Dose in Feces Samples ([8]; 24-48 h): 11.4%
- % of Administered Dose in Feces Samples ([8]; 48-72 h): 14.5%
- % of Administered Dose in Feces Samples ([8]; 72-96 h): 14.5%
- % of Administered Dose in Feces Samples ([8]; 96-120 h): 1.6%
- % of Administered Dose in Feces Samples ([8]; 120-144 h): 2.9%
- % of Administered Dose in Feces Samples, Sum ([8]; sum 0-144 h): 44.4%

— patent US11407750B2, “Derivatives of an FGFR inhibitor” (Incyte Corporation, priority 2019, dated 2022)
